Experimental data as given in US8541460B2, “PDK-1/Akt signaling inhibitors” (The Ohio State University, priority 2003, dated 2013).

Key:
[1] = tested on: RPMI-8226; assay: NCI DTP cell line screen (SRB), Leukemia; type: cell-based, human; settings: for TGI: in M (unit assumed)
Description: (§1) Screening of compounds 70 and 71 against several cancer cell lines The human tumor cell lines of the cancer screening panel are grown in RPMI 1640 medium containing 5% fetal bovine serum and 2 mM L-glutamine. For a typical screening experiment, cells are inoculated into 96 well microtiter plates in 100 μL at plating densities ranging from 5,000 to 40,000 cells/well depending on the doubling time of individual cell lines. After cell inoculation, the microtiter plates are incubated at 37° C., 5% CO2, 95% air and 100% relative humidity for 24 h prior to addition of experimental drugs.
(§2) After 24 h, two plates of each cell line are fixed in situ with TCA, to represent a measurement of the cell population for each cell line at the time of drug addition (Tz). Experimental drugs are solubilized in dimethyl sulfoxide at 400-fold the desired final maximum test concentration and stored frozen prior to use. At the time of drug addition, an aliquot of frozen concentrate is thawed and diluted to twice the desired final maximum test concentration with complete medium containing 50 μg/ml gentamicin. Additional four, 10-fold or ½ log serial dilutions are made to provide a total of five drug concentrations plus control. Aliquots of 100 μl of these different drug dilutions are added to the appropriate microtiter wells already containing 100 μl of medium, resulting in the required final drug concentrations.
(§3) Following drug addition, the plates are incubated for an additional 48 h at 37° C., 5% CO2, 95% air, and 100% relative humidity. For adherent cells, the assay is terminated by the addition of cold TCA. Cells are fixed in situ by the gentle addition of 50 μl of cold 50% (w/v) TCA (final concentration, 10% TCA) and incubated for 60 minutes at 4° C. The supernatant is discarded, and the plates are washed five times with tap water and air dried. Sulforhodamine B (SRB) solution (100 μl) at 0.4% (w/v) in 1% acetic acid is added to each well, and plates are incubated for 10 minutes at room temperature. After staining, unbound dye is removed by washing five times with 1% acetic acid and the plates are air dried. Bound stain is subsequently solubilized with 10 mM trizma base, and the absorbance is read on an automated plate reader at a wavelength of 515 nm. For suspension cells, the methodology is the same except that the assay is terminated by fixing settled cells at the bottom of the wells by gently adding 50 μl of 80% TCA (final concentration, 16% TCA). Using the seven absorbance measurements [time zero, (Tz), control growth, (C), and test growth in the presence of drug at the five concentration levels (Ti)], the percentage growth is calculated at each of the drug concentrations levels. Percentage growth inhibition is calculated as: [(Ti−Tz)/(C−Tz)]×100 for concentrations for which Ti>/=Tz [(Ti−Tz)/Tz]×100 for concentrations for which Ti<Tz
(§4) Three dose response parameters are calculated for each experimental agent. […] The drug concentration resulting in total growth inhibition (TGI) is calculated from Ti=Tz. […] Values are calculated for each of these three parameters if the level of activity is reached; however, if the effect is not reached or is exceeded, the value for that parameter is expressed as greater or less than the maximum or minimum concentration tested.
(§5) The methods described were used to test compounds 70 and 71 on a panel of sixty cell lines under a screening service provided by the Developmental Therapeutics Program at the National Institutes of Health. Shown in FIG. 1C are 1, RPMI-8226 leukemia cells; 2; NCI-H322M non-small cell lung cancer cells; 3, HT29 colon cancer cells; 4, U251 CNS cancer cells; 5, SK-MEL-28 melanoma cancer cells; 6, SK-OV-3 ovarian cancer cells; 7, RXF 393 renal cancer cells; 8, PC-3 prostate cancer cells; 9, MDA-MB-231 breast cancer cells.

[2] = tested on: COLO 205; assay: NCI DTP cell line screen (SRB), Colon Cancer; type: cell-based, human
Description: as §1, §2, §3, §4, §5

[3] = tested on: PC-3 cells; assay: Apoptosis analysis (DNA fragmentation ELISA, PARP cleavage); type: cell-based, human; settings: 1% FBS-containing medium
Description: Apoptosis analysis Two methods were used to assess drug-induced apoptotic cell death: detection of DNA fragmentation by the Cell Death Detection ELISA kit (Roche Diagnostics. Mannheim, Germany) and Western blot analysis of poly-(ADP-ribose)polymerase (PARP) cleavage. […] In brief, 4×10^5 PC-3 cells were cultured in a T-25 flask for 24 h before treatment. Cells were treated with the DMSO vehicle or the test agent at the indicated concentrations for 6-24 h, collected, and cell lysates equivalent to 2×10^3 PC-3 cells were used in the ELISA. For the PARP cleavage assay, drug-treated cells were collected 4-8 h post-treatment, washed with ice-cold PBS, and resuspended in lysis buffer containing 20 mM Tris-HCl, pH 8, 137 mM NaCl, 1 mM CaCl2, 10% glycerol, 1% Nonidet P-40, 0.5% deoxycholate, 0.1% SDS, 100 μM 4-(2-aminoethyl)benzenesulfonyl fluoride, leupeptin at 10 μg/mL, and aprotinin at 10 μg/mL. Soluble cell lysates were collected after centrifugation at 10,000 g for 5 min. Equivalent amounts of proteins (60-100 μg) from each lysate were resolved in 8% SDS-polyacrylamide gels. Bands were transferred to nitrocellulose membranes, and analyzed by immunoblotting with anti-PARP antibody.

[4] = tested on: NCI-H322M; assay: NCI DTP cell line screen (SRB), Non-Small Cell Lung Cancer; type: cell-based
Description: as §1, §2, §3, §4, §5

[5] = tested on: DU-145; assay: NCI DTP cell line screen (SRB), Prostate Cancer; type: cell-based
Description: as §1, §2, §3, §4, §5

[6] = tested on: PC-3; assay: NCI DTP cell line screen (SRB), Prostate Cancer; type: cell-based
Description: as §1, §2, §3, §4, §5

[7] = read-out: LC50 (the source's name)

NCC(=O)Nc1ccc(-n2nc(C(F)(F)F)cc2-c2ccc3c(ccc4ccccc43)c2)cc1 [Compound 70, 2-Amino-N-{4-[5-(2-phenanthrenyl)-3-(trifluoromethyl)-1H-pyrazol-1-yl]-phenyl}-acetamide]
Percent Growth ([1]; Log10 Concentration −4.0): −31% | Percent Growth ([1]; Log10 Concentration −5.0): −51% | Percent Growth ([1]; Log10 Concentration −6.0): 42% | Percent Growth ([1]; Log10 Concentration −7.0): 72% | Percent Growth ([1]; Log10 Concentration −8.0): 85% | TGI [1]: 2.84E−06 | Percent Growth ([2]; Log10 Concentration −4.0): 1% | Percent Growth ([2]; Log10 Concentration −5.0): −53% | Percent Growth ([2]; Log10 Concentration −6.0): 58% | Percent Growth ([2]; Log10 Concentration −7.0): 87% | Percent Growth ([2]; Log10 Concentration −8.0): 89% | apoptotic death in PC-3 cells (DNA fragmentation and PARP cleavage) [3]: induced apoptotic death in PC-3 cells in 1% FBS-containing medium in a dose-dependent manner | TGI [4]: 2.18E−06 | Percent Growth ([4]; Log10 Concentration −4.0): −57% | Percent Growth ([4]; Log10 Concentration −5.0): −84% | Percent Growth ([4]; Log10 Concentration −6.0): 43% | Percent Growth ([4]; Log10 Concentration −7.0): 51% | Percent Growth ([4]; Log10 Concentration −8.0): 40% | TGI [5]: 3.47E−06 | Percent Growth ([5]; Log10 Concentration −4.0): −60% | Percent Growth ([5]; Log10 Concentration −5.0): −76% | Percent Growth ([5]; Log10 Concentration −6.0): 90% | Percent Growth ([5]; Log10 Concentration −7.0): 109% | Percent Growth ([5]; Log10 Concentration −8.0): 105% | TGI [6]: 2.38E−06 | Percent Growth ([6]; Log10 Concentration −4.0): −55% | Percent Growth ([6]; Log10 Concentration −5.0): −77% | Percent Growth ([6]; Log10 Concentration −6.0): 47% | Percent Growth ([6]; Log10 Concentration −7.0): 69% | Percent Growth ([6]; Log10 Concentration −8.0): 89%

N=C(N)Nc1ccc(-n2nc(C(F)(F)F)cc2-c2ccc3c(ccc4ccccc43)c2)cc1 [Compound 71, 4-[5-(2-Phenanthrenyl)-3-(trifluoromethyl)-1H-pyrazol-1-yl]-phenyl-guanidine]
GI50 [1]: 1030 nM | Mean Optical Densities ([1]; Log10 Concentration −4.0): 0.176 | Percent Growth ([1]; Log10 Concentration −4.0): −47% | Mean Optical Densities ([1]; Log10 Concentration −5.0): 0.016 | Percent Growth ([1]; Log10 Concentration −5.0): −95% | Mean Optical Densities ([1]; Log10 Concentration −6.0): 0.513 | Percent Growth ([1]; Log10 Concentration −6.0): 52% | Mean Optical Densities ([1]; Log10 Concentration −7.0): 0.559 | Percent Growth ([1]; Log10 Concentration −7.0): 65% | Mean Optical Densities ([1]; Log10 Concentration −8.0): 0.536 | Percent Growth ([1]; Log10 Concentration −8.0): 58% | TGI [1]: 2.25E−06 | GI50 [2]: 1360 nM | TGI [2]: 2.69E−06 | Mean Optical Densities ([2]; Log10 Concentration −4.0): 0.151 | Percent Growth ([2]; Log10 Concentration −4.0): −32% | Mean Optical Densities ([2]; Log10 Concentration −5.0): 0.009 | Percent Growth ([2]; Log10 Concentration −5.0): −96% | Mean Optical Densities ([2]; Log10 Concentration −6.0): 0.930 | Percent Growth ([2]; Log10 Concentration −6.0): 73% | Mean Optical Densities ([2]; Log10 Concentration −7.0): 1.028 | Percent Growth ([2]; Log10 Concentration −7.0): 83% | Mean Optical Densities ([2]; Log10 Concentration −8.0): 1.146 | Percent Growth ([2]; Log10 Concentration −8.0): 95% | apoptotic death in PC-3 cells (DNA fragmentation and PARP cleavage) [3]: induced apoptotic death in PC-3 cells in 1% FBS-containing medium in a dose-dependent manner | GI50 [4]: 1360 nM | TGI [4]: 2.64E−06 | Mean Optical Densities ([4]; Log10 Concentration −4.0): 0.257 | Percent Growth ([4]; Log10 Concentration −4.0): −59% | Mean Optical Densities ([4]; Log10 Concentration −5.0): −0.052 | Percent Growth ([4]; Log10 Concentration −5.0): −100% | Mean Optical Densities ([4]; Log10 Concentration −6.0): 1.031 | Percent Growth ([4]; Log10 Concentration −6.0): 73% | Mean Optical Densities ([4]; Log10 Concentration −7.0): 1.049 | Percent Growth ([4]; Log10 Concentration −7.0): 76% | Mean Optical Densities ([4]; Log10 Concentration −8.0): 0.988 | Percent Growth ([4]; Log10 Concentration −8.0): 65% | CC50 [4, 7]: 5140 nM | GI50 [5]: 1550 nM | TGI [5]: 2.89E−06 | Mean Optical Densities ([5]; Log10 Concentration −4.0): −0.019 | Percent Growth ([5]; Log10 Concentration −4.0): −100% | Mean Optical Densities ([5]; Log10 Concentration −5.0): −0.074 | Percent Growth ([5]; Log10 Concentration −5.0): −100% | Mean Optical Densities ([5]; Log10 Concentration −6.0): 0.760 | Percent Growth ([5]; Log10 Concentration −6.0): 85% | Mean Optical Densities ([5]; Log10 Concentration −7.0): 0.767 | Percent Growth ([5]; Log10 Concentration −7.0): 87% | Mean Optical Densities ([5]; Log10 Concentration −8.0): 0.694 | Percent Growth ([5]; Log10 Concentration −8.0): 72% | CC50 [5, 7]: 5370 nM | GI50 [6]: 1380 nM | TGI [6]: 2.67E−06 | Mean Optical Densities ([6]; Log10 Concentration −4.0): 0.179 | Percent Growth ([6]; Log10 Concentration −4.0): −26% | Mean Optical Densities ([6]; Log10 Concentration −5.0): −0.022 | Percent Growth ([6]; Log10 Concentration −5.0): −100% | Mean Optical Densities ([6]; Log10 Concentration −6.0): 0.857 | Percent Growth ([6]; Log10 Concentration −6.0): 75% | Mean Optical Densities ([6]; Log10 Concentration −7.0): 0.846 | Percent Growth ([6]; Log10 Concentration −7.0): 73% | Mean Optical Densities ([6]; Log10 Concentration −8.0): 0.862 | Percent Growth ([6]; Log10 Concentration −8.0): 75%
